Results as given in patent publication US9457052B2, “Allograft tolerance induction” (The United States of America as Represented by the …, priority 2013, dated 2016).

Tested on: C57BL/6 responder splenocytes with irradiated BALB/c stimulatory cells
Experiment: Allo-MLR lymphocyte proliferation assay (3H-thymidine) with AMPs
Assay type: cell-based, mouse
Conditions: 20 μM indomethacin alone
Protocol: FIG. 2. […] (A) Naive C57BL/6 splenocytes (as responders cells) were cultured 1:1 with irradiated (3 Gy) naïve BALB/c stimulatory cells. […] Cell proliferation was analyzed by 3H-thymidine incorporation during the last 18 h of a 5 day culture. Results are expressed as the mean percent alloproliferation inhibition of quadruplicate cultures. Data are representative of two independent experiments. (B) Cytokine analysis of 48 h culture supernatants obtained from mixed lymphocyte reaction assays. Data are presented as means±SD (n=3; P<0.05). (C) Representative flow cytometric analysis of splenic Tregs following 5 days of alto-MLR culture in the absence and presence of AMP co-culture. […] Quadrants are set according to isotype controls. Results shown are representative of three separate experiments. FIG. 3. […] Results are expressed as the mean value±SD. […] Bars indicate mean fold increase±SD mRNA expression level of the indicated gene relative the housekeeping gene GAPDH and normalized to untreated AMP cutlures. (D) Supernatants from allo-MLR/AMP co-cultures inhibit MLR lymphocyte proliferation. […] Cell proliferation was analyzed by ^3H-thymidine incorporation during the last 18 h of a 5 day culture. Results are expressed as the mean percent alloproliferation inhibition of quadruplicate cultures. […]

COc1ccc2c(c1)c(CC(=O)O)c(C)n2C(=O)c1ccc(Cl)cc1 [indomethacin]
allo T-cell proliferation: significantly inhibit
